Measurements published in the Deep4Chem optical property database.

Assay: solvent given as SMILES

## O=C1CCCC2=C1C(c1ccccc1)c1c(c3ccccc3oc1=O)N2 (stereo not given)
In CS(C)=O
  emission maximum: 440 nm

## O=C(O)C1=C/C(=C/C=[N+]2/c3cc(O)c(C[C@@H]4O[C@H](CO)[C@@H](O)C(O)[C@H]4O)cc3C[C@H]2C(=O)O)C[C@H](C(=O)O)N1 (stereo not given in full)
In CO
  emission maximum: 611 nm
In O
  emission maximum: 641 nm
In OCCO
  emission maximum: 608 nm
In [2H]O[2H]
  emission maximum: 641 nm

## COCCOCCOCCOc1ccc(OCCOCCOCCOC)c(C=O)c1
In CC(C)(C)O
  emission maximum: 444 nm
In CC(C)CO
  emission maximum: 453 nm
In CC(C)O
  emission maximum: 455 nm
In CCCCO
  emission maximum: 458 nm
In CCCO
  emission maximum: 459 nm
In CCO
  emission maximum: 462 nm
In CN(C)C=O
  emission maximum: 423 nm
In CNC=O
  emission maximum: 458 nm
In CO
  emission maximum: 468 nm
In NC=O
  emission maximum: 463 nm
In O
  emission maximum: 485 nm

## CC(C)[Si](C#Cc1c2nc3ccccc3nc2c(C#C[Si](C(C)C)(C(C)C)C(C)C)c2nc3ccccc3nc12)(C(C)C)C(C)C
In CCCCCC
  emission maximum: 694 nm

## CCCCOc1ccc2cc(-c3ccc(C)cc3)c(=O)oc2c1
In C1CCOC1
  emission maximum: 423 nm
In CCCCCC
  emission maximum: 416 nm
In CCO
  emission maximum: 429 nm
In CS(C)=O
  emission maximum: 431 nm

## c1ccc(N(c2ccccc2)c2ccccc2)cc1
In CCO
  emission maximum: 353 nm

## CC1(C)c2ccccc2N(c2ccc3c(c2)c2cc(N4c5ccccc5C(C)(C)c5ccccc54)cc4c5ccccc5n3c42)c2ccccc21
In C1CCCCC1
  emission maximum: 427.57 nm
In C1CCOC1
  emission maximum: 481.94 nm
In Cc1ccccc1
  emission maximum: 449 nm

## CCn1c2ccccc2c2cc(/C=C/c3cccc[n+]3CCCS(=O)(=O)[O-])ccc21
In C1CCOC1
  emission maximum: 559 nm
In CC#N
  emission maximum: 565 nm
In CC(C)=O
  emission maximum: 565 nm
In Cc1ccccc1
  emission maximum: 590 nm

## COc1ccc(C#Cc2cc(C#Cc3ccc(OC)cc3)c(C#Cc3ccc(OC)cc3)c(C#Cc3ccc(OC)cc3)c2C#Cc2ccc(OC)cc2)cc1
In ClCCl
  emission maximum: 437 nm

## CN(C)c1ccc2nc(-c3ccc(C(=O)Nc4ccccc4)cc3)sc2c1
In C1CCCCC1
  emission maximum: 427 nm
In CC#N
  emission maximum: 553 nm
In CC(C)O
  emission maximum: 534 nm
In CO
  emission maximum: 565 nm
In CS(C)=O
  emission maximum: 564 nm
In ClC(Cl)Cl
  emission maximum: 494 nm
In c1ccccc1
  emission maximum: 475 nm

## CCCCN1/C(=C/C=C/C2=[N+](C)c3ccccc3C2(C)C)Oc2ccccc21
In CS(C)=O
  emission maximum: 537 nm

## Cc1cc2ccccc2c2c1c1ccccc1n2C(=O)OC(C)(C)C
In ClCCl
  emission maximum: 355 nm

## CC1=[N+]2C(=C(c3c4ccccc4c(-c4ccccc4)c4ccccc34)c3ccc(C)n3[B-]2(F)F)C=C1
In CC#N
  emission maximum: 536 nm
In CCCCCC
  emission maximum: 527 nm
In CCO
  emission maximum: 528 nm
In CN(C)C=O
  emission maximum: 533 nm
In Cc1ccccc1
  emission maximum: 532 nm
In ClCCl
  emission maximum: 533 nm

## COc1ccc(C2=CC(c3ccc(OC)cc3)=[O+][B-](C(C)=O)(C(C)=O)O2)cc1
In CC#N
  emission maximum: 435 nm
In ClC(Cl)(Cl)Cl
  emission maximum: 420 nm

## CCCn1c2cccc3oc4cccc5c4[c+](c32)c2c1cccc2n5CCC
In CC#N
  emission maximum: 590 nm

## N#Cc1cc2ccc(O)cc2oc1=O
In C1CCCCC1
  emission maximum: 411 nm
In C1CCOC1
  emission maximum: 405 nm
In CC#N
  emission maximum: 402 nm
In CCOC(C)=O
  emission maximum: 406 nm
In CS(C)=O
  emission maximum: 401 nm
In ClC(Cl)Cl
  emission maximum: 408 nm
In O
  emission maximum: 410 nm

## CC1=CC2=Nc3nc(C)[n+](C)cc3CN2C=C1
In CC#N
  emission maximum: 432 nm
In CCO
  emission maximum: 433 nm
In O
  emission maximum: 426 nm

## CCCCC1(CCCC)c2cc(C#Cc3ccc(C=C(c4ccccc4)c4ccccc4)cc3)ccc2-c2ccc(C#Cc3ccc(C=C(c4ccccc4)c4ccccc4)cc3)cc21
In C1CCOC1
  emission maximum: 416 nm

## Cc1cc(C)c2c(c1)nc1c(=O)n(C)c(=O)nc-1n2C
In CC#N
  emission maximum: 552 nm
